Results on twelve compounds are retold here after patent US12139492B2 (Endotarget Inc., priority 2021, dated 2024).

One assay deals with Mino cells. As to the kind of experiment: Antiproliferative effect, MTS cell viability assay, Mino cells. Format: cell-based. Conditions: Homo sapiens, MINO, Mino mantle cell lymphoma cells; read-out: IC50 (anti-proliferation) Mino cells. Put shortly:
(§1)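 Tested at six concentrations (0 to 10 μM in tenfold steps), 72 h; viability by MTS, A490.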

The test system of another assay is JeKo-1 cells. As to the kind of experiment: Antiproliferative effect, MTS cell viability assay, JeKo-1 cells. As to conditions: Homo sapiens; JeKo-1 mantle cell lymphoma cells; read-out: IC50 (anti-proliferation) JeKO-1 cells. Format: cell-based. In outline: as §1
For a further assay, the target named is BTK (Homo sapiens, UniProt Q06187). As to the kind of experiment: Degradation of BTK protein in Namalwa cells (Western blot; DC50, Dmax). As to conditions: for DC50: BTK degradation, cell line not given.

The structures appear in SMILES notation.

BTK, sequence (Q06187 whole entry): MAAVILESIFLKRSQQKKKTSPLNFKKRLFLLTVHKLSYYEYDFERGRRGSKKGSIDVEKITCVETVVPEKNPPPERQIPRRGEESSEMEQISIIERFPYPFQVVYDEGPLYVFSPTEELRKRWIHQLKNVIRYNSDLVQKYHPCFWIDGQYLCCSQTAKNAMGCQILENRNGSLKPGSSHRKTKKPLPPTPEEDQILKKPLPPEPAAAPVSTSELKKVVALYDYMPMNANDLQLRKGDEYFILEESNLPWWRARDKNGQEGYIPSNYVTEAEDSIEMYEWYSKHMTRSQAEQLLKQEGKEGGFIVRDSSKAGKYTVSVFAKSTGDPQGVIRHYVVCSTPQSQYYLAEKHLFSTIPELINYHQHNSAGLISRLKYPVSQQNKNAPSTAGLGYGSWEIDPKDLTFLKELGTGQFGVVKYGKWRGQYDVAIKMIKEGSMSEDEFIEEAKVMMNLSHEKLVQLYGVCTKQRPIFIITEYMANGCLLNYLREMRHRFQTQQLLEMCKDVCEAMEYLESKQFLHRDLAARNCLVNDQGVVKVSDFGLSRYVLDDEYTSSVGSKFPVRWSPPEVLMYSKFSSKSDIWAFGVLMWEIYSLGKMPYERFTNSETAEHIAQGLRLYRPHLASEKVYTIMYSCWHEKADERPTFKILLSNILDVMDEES
Procedure for BTK: Namalwa, JeKo-1, or Mino cells were plated in 24-well plates at a density of 10^5 cells/well. Media containing various drug concentrations were added on the day following plating (day 0) and allowed to incubate for 24 hours for Western blot. Media with the tested compound was changed every other day. […] Media were removed and dishes were washed with 1×DPBS. Lysates were made by adding 150 μL of complete lysis solution and scraping cells into a 1.5 mL microcentrifuge tube. Lysates were placed on a rotisserie at 4° C. for 30 min and then spun at 4° C. at 12000 rcf for 10 min. Supernatants were assayed for protein content, snap-frozen, and stored a −80° C. if not run immediately. Then 50 μg of protein was subjected to Western blot protocol. […] They were then imaged on a LICOR infrared scanner.

In the case of `NC(=O)c1c(-c2ccc(Oc3ccccc3)cc2)nn2c1NCCC2C1CCN(CC2CCN(CCN3CCC(c4ccc5c(c4)C(=O)N(C4CCC(=O)NC4=O)C5=O)CC3)CC2)CC1` (stereo not drawn) [Compound 319, 7-(1-((1-(2-(4-(2-(2,6-dioxopiperidin-3-yl)-1,3-dioxoisoindolin-5-yl)piperidin-1-yl)ethyl)piperidin-4-yl)methyl)piperidin-4-yl)-2-(4-phenoxyphenyl)-4,5,6,7-tetrahydropyrazolo[1,5-a]pyrimidine-3-carboxamide], the IC50 with Mino cells was 1000 to 10000 nM. Moreover, the IC50 in the assay with JeKo-1 cells was more than 10000 nM. At BTK, this compound had a Dmax of more than 75% and a DC50 of 10 to 50 nM.
As to `NC(=O)c1c(-c2ccc(Oc3ccccc3)cc2)nn2c1NCCC2C1CCN(CC2CCN(CCN3CCC(c4ccc5c(c4)CN(C4CCC(=O)NC4=O)C5=O)CC3)CC2)CC1` (stereo not drawn) [Compound 320, 7-(1-((1-(2-(4-(2-(2,6-dioxopiperidin-3-yl)-1-oxoisoindolin-5-yl)piperidin-1-yl)ethyl)piperidin-4-yl)methyl)piperidin-4-yl)-2-(4-phenoxyphenyl)-4,5,6,7-tetrahydropyrazolo[1,5-a]pyrimidine-3-carboxamide], the IC50 in the assay on Mino cells and with JeKo-1 cells was 1000 to 10000 nM in each case. The same compound showed a Dmax at BTK of more than 90%. Moreover, the DC50 at BTK lay within 10 to 50 nM.
Regarding `NC(=O)c1c(-c2ccc(Oc3ccccc3)cc2)nn2c1NCC[C@H]2C1CCN(C2CCN(CC3CCN(c4ccc5c(c4)C(=O)N(C4CCC(=O)NC4=O)C5=O)CC3)CC2)CC1` (stereo partly drawn) [Compound 321, (7S)-7-(1′-((1-(2-(2,6-dioxopiperidin-3-yl)-1,3-dioxoisoindolin-5-yl)piperidin-4-yl)methyl)-[1,4′-bipiperidin]-4-yl)-2-(4-phenoxyphenyl)-4,5,6,7-tetrahydropyrazolo[1,5-a]pyrimidine-3-carboxamide], in the assay on Mino cells, the IC50 was more than 10000 nM. Further, the IC50 with JeKo-1 cells was more than 10000 nM. On BTK, the Dmax is more than 75% and the DC50 lay in the range of 10 to 50 nM.
`NC(=O)c1c(-c2ccc(Oc3ccccc3)cc2)nn2c1NCC[C@H]2C1CCN(C2CCN(CC3CCN(c4ccc5c(c4)CN(C4CCC(=O)NC4=O)C5=O)CC3)CC2)CC1` (stereo partly drawn) [Compound 322, (7S)-7-(1′-((1-(2-(2,6-dioxopiperidin-3-yl)-1-oxoisoindolin-5-yl)piperidin-4-yl)methyl)-[1,4′-bipiperidin]-4-yl)-2-(4-phenoxyphenyl)-4,5,6,7-tetrahydropyrazolo[1,5-a]pyrimidine-3-carboxamide]: the IC50 with Mino cells and in the assay on JeKo-1 cells was 1000 to 10000 nM each time. In addition, at BTK, the Dmax was more than 90%. Further, the DC50 on BTK fell in the range of 10 to 50 nM.
For the compound `NC(=O)c1c(-c2ccc(Oc3ccccc3)cc2)nn2c1NCC[C@H]2C1CCN(C2CCN(CCN3CCN(c4ccc5c(c4)C(=O)N(C4CCC(=O)NC4=O)C5=O)CC3)CC2)CC1` (stereo partly drawn) [Compound 323, (7S)-7-(1′-(2-(4-(2-(2,6-dioxopiperidin-3-yl)-1,3-dioxoisoindolin-5-yl)piperazin-1-yl)ethyl)-[1,4′-bipiperidin]-4-yl)-2-(4-phenoxyphenyl)-4,5,6,7-tetrahydropyrazolo[1,5-a]pyrimidine-3-carboxamide], the IC50 with Mino cells was in the range of 1000 to 10000 nM. The IC50 with JeKo-1 cells was in the range of 1000 to 10000 nM. At BTK, the Dmax is more than 75% and the DC50 lay in the range of 10 to 50 nM.
As for `NC(=O)c1c(-c2ccc(Oc3ccccc3)cc2)nn2c1NCC[C@H]2C1CCN(C2CCN(CCN3CCN(c4ccc5c(c4)CN(C4CCC(=O)NC4=O)C5=O)CC3)CC2)CC1` (stereo partly drawn) [Compound 324, (7S)-7-(1′-(2-(4-(2-(2,6-dioxopiperidin-3-yl)-1-oxoisoindolin-5-yl)piperazin-1-yl)ethyl)-[1,4′-bipiperidin]-4-yl)-2-(4-phenoxyphenyl)-4,5,6,7-tetrahydropyrazolo[1,5-a]pyrimidine-3-carboxamide], in the assay on Mino cells, the IC50 was in the range of 1000 to 10000 nM. In addition, the IC50 in the assay on JeKo-1 cells lay in the range of 1000 to 10000 nM. At BTK, this compound returned a Dmax of more than 75% and a DC50 of more than 50 nM.
As to `NC(=O)c1c(-c2ccc(Oc3ccccc3)cc2)nn2c1NCC[C@H]2C1CCN(C2CCN(CCC3CCN(c4ccc5c(c4)C(=O)N(C4CCC(=O)NC4=O)C5=O)CC3)CC2)CC1` (stereo partly drawn) [Compound 325], the IC50 in the assay with Mino cells and in the assay with JeKo-1 cells was 1000 to 10000 nM in each case. This compound also came in with a Dmax on BTK of more than 90%. In addition, the DC50 on BTK lay in the range of 10 to 50 nM.
With `NC(=O)c1c(-c2ccc(Oc3ccccc3)cc2)nn2c1NCC[C@H]2C1CCN(C2CCN(CCC3CCN(c4ccc5c(c4)CN(C4CCC(=O)NC4=O)C5=O)CC3)CC2)CC1` (stereo partly drawn) [Compound 326, (7S)-7-(1′-(2-(1-(2-(2,6-dioxopiperidin-3-yl)-1-oxoisoindolin-5-yl)piperidin-4-yl)ethyl)-[1,4′-bipiperidin]-4-yl)-2-(4-phenoxyphenyl)-4,5,6,7-tetrahydropyrazolo[1,5-a]pyrimidine-3-carboxamide], in the assay on Mino cells, the IC50 is 1000 to 10000 nM. Further, in the assay on JeKo-1 cells, the IC50 is 1000 to 10000 nM. Besides, at BTK, the Dmax was more than 90% and the DC50 was in the range of 10 to 50 nM.
For the compound `NC(=O)c1c(-c2ccc(Oc3ccccc3)cc2)nn2c1NCC[C@H]2C1CCN(C2CCN(CCN3CCC(c4ccc5c(c4)C(=O)N(C4CCC(=O)NC4=O)C5=O)CC3)CC2)CC1` (stereo partly drawn) [Compound 327, (7S)-7-(1′-(2-(4-(2-(2,6-dioxopiperidin-3-yl)-1,3-dioxoisoindolin-5-yl)piperidin-1-yl)ethyl)-[1,4′-bipiperidin]-4-yl)-2-(4-phenoxyphenyl)-4,5,6,7-tetrahydropyrazolo[1,5-a]pyrimidine-3-carboxamide], the IC50 is 1000 to 10000 nM with Mino cells and more than 10000 nM with JeKo-1 cells. The compound further yielded a Dmax on BTK of more than 75%. For the same compound, the DC50 at BTK fell in the range of 10 to 50 nM.
The like results for `NC(=O)c1c(-c2ccc(Oc3ccccc3)cc2)nn2c1NCC[C@H]2C1CCN(C2CCN(CCN3CCC(c4ccc5c(c4)CN(C4CCC(=O)NC4=O)C5=O)CC3)CC2)CC1` (stereo partly drawn) [Compound 328, (7S)-7-(1′-(2-(4-(2-(2,6-dioxopiperidin-3-yl)-1-oxoisoindolin-5-yl)piperidin-1-yl)ethyl)-[1,4′-bipiperidin]-4-yl)-2-(4-phenoxyphenyl)-4,5,6,7-tetrahydropyrazolo[1,5-a]pyrimidine-3-carboxamide] were, in that order, 1000 to 10000 nM, 1000 to 10000 nM, more than 75% and 10 to 50 nM.
The like results for `NC(=O)c1c(-c2ccc(Oc3ccccc3)cc2)nn2c1NCC[C@H]2C1CCN(CC2CCN(CC3CCN(c4ccc5c(c4)C(=O)N(C4CCC(=O)NC4=O)C5=O)CC3)CC2)CC1` (stereo partly drawn) [Compound 329, (7S)-7-(1-((1-((1-(2-(2,6-dioxopiperidin-3-yl)-1,3-dioxoisoindolin-5-yl)piperidin-4-yl)methyl)piperidin-4-yl)methyl)piperidin-4-yl)-2-(4-phenoxyphenyl)-4,5,6,7-tetrahydropyrazolo[1,5-a]pyrimidine-3-carboxamide] were, in that order, more than 10000 nM, more than 10000 nM, more than 75% and 10 to 50 nM.
The matching figures for `NC(=O)c1c(-c2ccc(Oc3ccccc3)cc2)nn2c1NCC[C@H]2C1CCN(CC2CCN(CC3CCN(c4ccc5c(c4)CN(C4CCC(=O)NC4=O)C5=O)CC3)CC2)CC1` (stereo partly drawn) [Compound 330, (7S)-7-(1-((1-((1-(2-(2,6-dioxopiperidin-3-yl)-1-oxoisoindolin-5-yl)piperidin-4-yl)methyl)piperidin-4-yl)methyl)piperidin-4-yl)-2-(4-phenoxyphenyl)-4,5,6,7-tetrahydropyrazolo[1,5-a]pyrimidine-3-carboxamide]: 1000 to 10000 nM, 1000 to 10000 nM, more than 75% and 10 to 50 nM.
